Tested on: HVA calcium channel
Type: cell-based, rat

`COC(=O)C1=C(C)NC(C)=C(C(=O)OC)C1c1ccccc1[N+](=O)[O-]` [Nifedipine, reference compound] was tested, and the “current after loading (pA)” value was −734.31 pA, the “current before loading (pA)” value was −1471.35 pA and the “inhibition rate (%)” value (10 μM) was 50.09%.
